Data as given in patent US12312628B2, “Metabolic control over organometallic catalysts using electroactive bacteria” (THE BOARD OF REGENTS OF THE UNIVERSITY OF TEXAS SYSTEM, priority 2018, dated 2025).

How the values were obtained:
S. oneidensis MR-1 = assay: Bacterial viability after polymerization (LIVE/DEAD BacLight, CFU counting); assay type: cell-based, Shewanella oneidensis
Experimental: Bacterial viability was determined by CFU counting and staining with the LIVE/DEAD BacLight Viability Kit (Invitrogen). For CFU counting, serial dilutions from the Cu-TPMA polymerization reaction and a control culture containing 20 mM sodium lactate and 40 mM sodium fumarate were plated onto LB agar containing 20 mM sodium lactate and 40 mM sodium fumarate, and incubated anaerobically for 18 hours. The LIVE/DEAD BacLight Viability Kit was used according to manufacturer instructions. Briefly, cells were harvested after polymerization and washed 3× with 0.85% saline by centrifugation at 6000×g for 20 min. Cells were concentrated to an OD600 of ˜2.0 and incubated with the LIVE/DEAD BacLight Bacterial Viability dye mixture in the dark for 15 minutes. Excess, unbound dye was removed by repeated centrifugation and washing with 0.85% saline (total of 5 washes). 20 μL of cells were placed on glass slides, allowed to settle, and covered with a 0.17 mm coverslip. Excess moisture was wicked from the slide edges and the coverslips were sealed with nail polish. A Zeiss Axiovert 200M Fluorescent Microscope was used to image live and dead cells at room temperature. Images were captured using 475/40 nm excitation and 530/50 nm emission for green (live) fluorescence and 560/40 nm excitation and 630/75 nm emission for red (dead) fluorescence with a 40× oil objective. Cell counts to determine the viable population percentages were quantified by thresholding using Fiji 1.0 software from at least 3 different fields of view. Representative images were background subtracted using a rolling ball radius of 10 pixels in Fiji 1.0.

E. coli = details: polymerization conditions, Cu(II/I) 2 μM
[1] = test system: S. oneidensis genomic knockout strain (ΔmtrCΔomcAΔmtrF) with BUFFER GATE/sfGFP plasmid; assay: BUFFER GATE/sfGFP reporter response to inducer; assay type: cell-based, Shewanella oneidensis; details: various concentrations of IPTG
Source text: An S. oneidensis strain/plasmid system was developed that tunes extracellular electron transfer via BUFFER GATE-controlled expression of mtrC. The BUFFER GATE sets gene expression as ‘off’ in the absence of a user-defined signal (e.g., small-molecule, light, heat). However, in the signal's presence, the BUFFER GATE turns gene expression ‘on’. A BUFFER GATE was constructed by encoding the LacI repressor and Ptac promoter pairing on a plasmid, which together can modulate transcription of promoter-downstream genes based on culture concentration of the small-molecule Isopropyl β-D-1-thiogalactopyranoside or IPTG. To test the functionality and dynamic range of gene expression actuated by this BUFFER GATE, a plasmid was constructed that placed a ribozyme-insulated fluorescent reporter gene, superfolder GFP or sfGFP, downstream of the Ptac promoter. This BUFFER GATE/sfGFP plasmid was used to transform an S. oneidensis genomic knockout strain (ΔmtrCΔomcAΔmtrF) and sfGFP fluorescence was measured at various concentrations of IPTG. Using this S. oneidensis strain, 488/530 nm fluorescence varied over about 2 orders of magnitude (FIG. 11).

O.O.O.O.O.O=S(=O)([O-])[O-].[Cu+2] [Cu(II), Cupric sulfate pentahydrate]
post-polymerization viability (S. oneidensis MR-1; MR-1, polymerization conditions, Cu(II/I) 2 μM): 74% | MR-1 colony forming units (CFUs) following polymerization (S. oneidensis MR-1; optimized polymerization conditions, Cu(II/I) 2 μM and below): No significant difference | post-polymerization viability (E. coli): 86%

CC(C)S[C@@H]1O[C@H](CO)[C@H](O)[C@H](O)[C@H]1O [IPTG, Isopropyl β-D-1-thiogalactopyranoside]
sfGFP 488/530 nm fluorescence variation [1]: about 2 orders of magnitude

[Cu+] [Cu(I)]
inhibition of MR-1 growth (S. oneidensis MR-1; after 24 hours of polymerization, CuSO4·5H2O and EDTA): minimal inhibition
